Test results reported in patent publication US20040162467A1, “Non-invasive transudate extraction” (priority 2001, published 2004).
Several values for one entry are separate records, joined by “and”; a condition that tells them apart may be missing. Equal values may be shown once.

Experiments:
[1] = Concentrations in transdermal exudate collected by different formats from sheep, versus serum; conditions: in vivo
Experimental: (§1) Sodium lauryl sulfate (40%) and either a commercial ultrasound conductive gel (Aquasonic, Parker Lab., NJ 07004, USA) or a 10% ethanol gel (the two gels were alternated in use) are employed. These gels are designated SLS-UG and SLS-EG respectively herein. Collected SLS-UG and SLS-EG are assayed as for blood. Saliva was divided into two samples. The first sample is stored at −20° C. and assayed as for blood. The second sample is assayed at the time of experimentation using the apparatus and immunosensors described above.
Ten of these animals were used to develop the transdermal exudate collection technique. These 10 animals were penned as above, and a catheter inserted into the jugular vein using known techniques in the art. A mixture of sodium lauryl sulfate and either SLS-UG or SLS-EG was positioned onto the shaved area on the back of each animal. […] At the end of the hour, the remaining mix on the back was collected. The entire procedure was repeated three times. This mix was subject to assay (see below) for hormones and glucose content.
On the following day, one of the two gel mixes were rubbed on and, after 10 min, ultrasound (20 kHz, 10 W/cm^2, pulsed 5 s on/5 s off using an ITO Physiotherapy and rehabilitation unit, Tokyo 176-8605, Japan) applied for 1 min directly onto the mix. Ten minutes later, the mix was again collected and measured. This was then repeated with 2 min of the ultrasound application, and on a following day, the entire procedure repeated using the alternative gel mix on the shaved patch on the animal. Times greater than 2 min were not attempted due to potential risk of skin damage. Blood samples were collected at the time of ultrasound application and again at the time when the gel mix was also collected. The entire ultrasound procedure was then repeated on subsequent days with the addition of an application of a 9V electric field either side of the ultrasound head (in contact with skin).
On a separate day, in a further repeat of the above procedure; the collecting head (50) was positioned onto the ultrasound device. The ultrasound device was modified to ensure good coupling for use with the collecting head and delivery of needed parameters to the skin. The output of the device was reset to achieve the same energy and pulse delivery to the skin's surface as when the collecting head was not present, and the ultrasound device had been placed directly in contact with the gels (as described above). Three fluid flow rates into the collection chamber of the head were compared: 150, 300 and 600 μl/min. The effluent fluid was then assayed. On a final day, this was then repeated with the immunosensors positioned in the exit line from the chamber, with immunosensor measurement of the hormones made as has been described above.

[2] = Serum, transdermal and saliva samples from sheep before, during and after exercise; conditions: for Saliva: 20-min saliva lag; for Exudate: transdermal
Experimental: as §1
(§2) Student t tests, ANOVA or Wilcoxon test for paired samples are made as appropriate. Statistical significance is taken at P≦0.05 level. For analysis across the exercise stress, data is grouped into pre, during and post exercise values as actual sample times relative to the exercise for transdermal and blood obtained values. For pre, during and post exercise grouping of saliva samples, a 20-min lag was allowed relative to blood and transdermal values in sheep and a 30-min lag in human subjects.
In the remaining 10 sheep, experimentation took place on three separate days, each 3 days apart. On days of experimentation, animals were penned as above and the jugular vein of the animal was catheterised. Animals were left to rest for 50 min and then a single ultrasound application applied for 1 min as above. […] A series of electrosonophoresis collections were made concurrently with blood collection from the jugular vein, every 5 min for a further 1 h. Saliva samples were collected on every second blood sample (i.e. every 10 min). At completion of this time, a human shepherd, intermittently for 30 min, then ran the animals around a paddock. During this 30 min, each animal was briefly restrained manually and sampled on all three parameters every 10 min (i.e. three samples repeated three times). At the end of this period, animals were repenned and rested for 10 min, and a further saliva collection was made. Following this saliva collection for a further 1-h period, collection as above, prior to exercise, was repeated. In this manner for each animal, in each session, 27 blood and transdermal samples and 16 saliva samples were collected.

[3] = Serum, transdermal and saliva samples from human subjects before, during and after exercise; conditions: for Saliva: 30-min saliva lag
Experimental: as §1, §2
Ten human volunteers (males aged 19-23, body weights 85-103 kg) were seated at 09:30 h. During the experiment, they were held at a room temperature of 20-22° C. An initial 1 min burst of ultrasound, as for the sheep (above), was made on the volar surface of the forearm, following application of SLS-EG mix. Ten minutes later, transdermal (electrosonophoresis) collection began from this site on this forearm, simultaneous to a venepuncture blood collection being made from the other. A saliva collection was then made, followed by a second, third and fourth saliva collection 20, 30 and 40 min after the blood sample. These measurements were repeated three times over 3 h (i.e. a total of three blood and transdermal samples and 12 saliva samples). In between each sampling series, subjects were allowed to walk around, eat lightly and drink water. Following this collection, the five volunteers exercised at moderate intensities, for 40 min (heart rates maintained in the range of 130-160 bpm) on a rowing machine, stopping briefly at 10, 20 and 30 min to give blood, transdermal and saliva samples. The subjects gave another set of samples at 40 min upon completion of rowing, then warmed down lightly with stretching exercises for a further 10 min and gave a further saliva sample at the end of this time. Two more saliva samples were collected at 60 and 70 min after exercise started. At the end of this time, sampling was repeated as above, prior to exercise, for a further 3 h. The entire procedure was repeated twice a week for 3 weeks (a total of six times). The distance rowed (m) represented the total work rate during the exercise.

[4] = Patients recovering in intensive care: blood versus ultrasound (US) levels; format: in vivo, human; conditions: one value per sample
[5] = Salivary cortisol during familiarization period; format: in vivo; conditions: sheep
Experimental: Twenty sheep (Romney cross ewes, 36-44 kg live weights) were farmed together as a flock for 14 days prior to experimentation. On each of these days, they were rounded up, penned, a patch on their backs (approximately 5 cm in diameter) shaved and SLS-UG or SLS-EG applied.
Two minutes later the electrosonophoresis device was placed briefly on this patch (not turned on). At the end of 1 h of penning saliva was collected using a plastic suction bulb positioned manually into the mouth of the sheep. In this manner the sheep were familiarized to the experimental procedure.

C[C@]12CCC(=O)C=C1CC[C@@H]1[C@@H]2[C@@H](O)C[C@@]2(C)[C@H]1CC[C@]2(O)C(=O)CO [Cortisol, cortisol]
Recovery as % of serum levels [1]: 5%
Serum ([2]; 10 min Exercise): 19.6 ± 5.1 ng/L
Saliva ([2]; 10 min Exercise): 1.51 ± 0.97 ng/L
Exudate ([2]; 10 min Exercise): 2.91 ± 0.83 ng/L
Serum ([2]; 20 min Exercise): 27.8 ± 4.6 ng/L
Saliva ([2]; 20 min Exercise): 2.35 ± 2.19 ng/L
Exudate ([2]; 20 min Exercise): 3.92 ± 1.01 ng/L
Serum ([2]; 30 min Exercise): 39.3 ± 7.4 ng/L
Saliva ([2]; 30 min Exercise): 2.44 ± 1.76 ng/L
Serum ([2]; Postexercise): 18.3 ± 4.9 ng/L
Saliva ([2]; Postexercise): 1.34 ± 1.81 ng/L
Exudate ([2]; Postexercise): 2.71 ± 0.55 ng/L
Serum ([2]; Preexercise): 11.9 ± 4.7 ng/L
Saliva ([2]; Preexercise): 1.07 ± 1.03 ng/L
Exudate ([2]; Preexercise): 1.71 ± 0.85 ng/L
Serum ([3]; 0 min Exercise): 29.5 ± 9.2 ng/L
Saliva ([3]; 0 min Exercise): 2.79 ± 1.13 ng/L
Serum ([3]; 10 min Exercise): 7.08 ± 11.5 ng/L
Saliva ([3]; 10 min Exercise): 8.01 ± 2.86 ng/L
Serum ([3]; 20 min Exercise): 91.3 ± 19.7 ng/L
Saliva ([3]; 20 min Exercise): 8.75 ± 4.31 ng/L
Serum ([3]; 30 min Exercise): 115.7 ± 15.8 ng/L
Saliva ([3]; 30 min Exercise): 10.04 ± 3.11 ng/L
Serum ([3]; 40 min Exercise): 109.4 ± 13.1 ng/L
Saliva ([3]; 40 min Exercise): 9.19 ± 3.76 ng/L
Serum ([3]; Postexercise): 49.6 ± 11.3 ng/L
Saliva ([3]; Postexercise): 4.02 ± 1.95 ng/L
Serum ([3]; Preexercise): 22.7 ± 8.1 ng/L
Saliva ([3]; Preexercise): 2.25 ± 1.04 ng/L
Cortisol US [4]: 32.1 ng/mL and 37.4 ng/mL and 30.5 ng/mL and 39.7 ng/mL and 29.2 ng/mL and 36.4 ng/mL and 31.3 ng/mL and 45.9 ng/mL
Salivary value ([5]; Day 14): 1.1 ± 0.9 ng/mL
Salivary value ([5]; first day): 6.4 ± 1.2 ng/mL
